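48-hour exposure; five concentrations; linearly interpolated endpoints. GI50 is the concentration that inhibits growth by half.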 Activity calls are given as the source filed them. Cut-off read from the data, not from the text of the source: active = GI50 up to about 1.1 µM and inactive = higher.

Holding throughout (assay): NCI-60 cell line screen, 48 h
Experiment [1] relates to TK-10.
Experiment [2] deals with Malme-3M.
Experiment [3] has as its system ACHN.
In experiment [4] the test system is EKVX.
Experiment [5] deals with M14.
Experiment [6] relates to HOP-92.
For experiment [7], the system named is HL-60.
Experiment [8] concerns HOP-62.
Experiment [9] relates to DMS-114.
Experiment [10] deals with LXFL 529.
Experiment [11] relates to SF-539.
Experiment [12] has as its system RXF 393.
For experiment [13], the system named is NCI/ADR-RES.
Experiment [14] deals with LOX IMVI.
Experiment [15] deals with NCI-H226.
Experiment [16] deals with MCF7.
In experiment [17] the test system is BT-549.
The subject of experiment [18] is MDA-MB-231.
Experiment [19] deals with MDA-N.
Experiment [20] concerns Hs-578T.

As to `CC(C)OP(=O)(OC(C)C)/C(I)=N/Nc1ccc([N+](=O)[O-])cc1`, the GI50 in [1], in [2], in experiment [3], in [4], in experiment [5] and in experiment [6] was > 100 µM (inactive) throughout. Besides, the GI50 in experiment [7], in [8], in experiment [9], in experiment [10] and in experiment [11] was > 100 µM (inactive) throughout.

With `Cc1c2cnccc2c(C)c2c1c1ccccc1n2CCCCCCNCc1ccccc1`, the GI50 in experiment [2] is 2.44 µM (inactive); in experiment [12], 2.04 µM (inactive); in experiment [13], 0.74 µM (active); in experiment [14] it was 1.07 µM (active); in [4], 2.11 µM (inactive); in experiment [15] it was 1.55 µM (inactive). Further, the GI50 was 1.45 µM (inactive) in experiment [16]; 2.03 µM (inactive) in [6]; 1.03 µM (active) in experiment [7]; 4.17 µM (inactive) in [8]; 1.83 µM (inactive) in experiment [9]; 1.87 µM (inactive) in [11].

Turning to `O=c1[nH]c2c(c3ccccc13)CCc1ccccc1-2`, the GI50 in experiment [1], in [2], in experiment [3], in [12], in experiment [4] and in experiment [15] was > 100 µM (inactive) throughout. Also, the GI50 in experiment [9], in experiment [10] and in [11] was > 100 µM (inactive) throughout.

As for `O=C(CCN(CCO)CCO)Nc1ccc2c(c1)C(=O)c1ccc(NC(=O)CCN(CCO)CCO)cc1C2=O`, the GI50 in experiment [1] is 13.4 µM (inactive); in experiment [2], 12.8 µM (inactive); in experiment [3], 9.29 µM (inactive); in experiment [12], 4 µM (inactive); in [14], 14.2 µM (inactive); in [4], 5.69 µM (inactive). Further, the GI50 in [15] was 6.95 µM (inactive); in [5] it was 12.4 µM (inactive); in experiment [6], 26.7 µM (inactive); in experiment [7], 9.59 µM (inactive); in experiment [8], 29.4 µM (inactive); in experiment [9] it was 5.11 µM (inactive). Moreover, the GI50 in [10] is 2.05 µM (inactive); in experiment [11] it was 4.81 µM (inactive).

On to `O=C1C(Cl)N(c2ccccc2)C1c1c[nH]c2ccccc12` (stereo not given), for which the GI50 in experiment [1], in experiment [2], in experiment [12], in experiment [4], in experiment [5] and in experiment [6] was > 100 µM (inactive) throughout. The GI50 in experiment [7], in experiment [8], in experiment [9], in [10] and in experiment [11] was > 100 µM (inactive) throughout.

For the compound `O=c1oc2ccccc2n1P(=O)(n1c(=O)oc2ccccc21)n1c(=O)oc2ccccc21`, the GI50 was > 100 µM (inactive) in [1]; > 100 µM (inactive) in [2]; > 100 µM (inactive) in experiment [3]; > 100 µM (inactive) in [12]; > 100 µM (inactive) in experiment [14]; 97.7 µM (inactive) in experiment [4]. Further, the GI50 in experiment [15], in experiment [5], in experiment [6], in experiment [7], in experiment [8] and in experiment [9] was > 100 µM (inactive) in each case. The GI50 in experiment [10] and in [11] was > 100 µM (inactive) in each case.

For the compound `C=C(C(=O)C(=O)Oc1ccc(Cl)cc1)C(=O)c1ccc(C)cc1`, the GI50 in experiment [1] is > 100 µM (inactive); in [2], 78.3 µM (inactive); in experiment [3], 91.4 µM (inactive); in experiment [12], 26.4 µM (inactive); in [14], < 0.01 µM (active); in experiment [4] it was > 100 µM (inactive). For the same compound, the GI50 in experiment [15] was > 100 µM (inactive); in [5], 28.3 µM (inactive); in [6], > 100 µM (inactive); in experiment [7] it was 17.9 µM (inactive); in experiment [8], > 100 µM (inactive); in experiment [9] it was 30.9 µM (inactive). Moreover, the GI50 was 27.9 µM (inactive) in [10] and 18.4 µM (inactive) in experiment [11].

Take `c1ccc2cc3n[se]nc3cc2c1`: the GI50 in experiment [1], in experiment [2], in experiment [3], in experiment [12], in experiment [14] and in experiment [4] was > 100 µM (inactive) throughout. For the same compound, the GI50 in experiment [5] was > 100 µM (inactive); in [7], > 100 µM (inactive); in experiment [9], > 100 µM (inactive); in [10], > 100 µM (inactive); in experiment [11] it was 37.6 µM (inactive).

As for `CC(=O)OCC1OC(n2c(-c3ccc(C)cc3)cc(-c3ccco3)c(C#N)c2=S)C(OC(C)=O)C(OC(C)=O)C1OC(C)=O` (stereo not given), the GI50 in experiment [1] is 52.1 µM (inactive); in experiment [2], > 100 µM (inactive); in [3] it was 75.5 µM (inactive); in experiment [12], 40.6 µM (inactive); in [17], 38.7 µM (inactive); in [13] it was 84.3 µM (inactive). The GI50 in [14] is > 100 µM (inactive); in experiment [4], > 100 µM (inactive); in experiment [15], 25.2 µM (inactive); in [5], 83.9 µM (inactive); in experiment [16], 40.6 µM (inactive); in experiment [6], 16.6 µM (inactive). Besides, the GI50 in experiment [7] is > 100 µM (inactive); in [18], 22.9 µM (inactive); in experiment [19] it was > 100 µM (inactive); in [8], 42.7 µM (inactive); in experiment [11], 17.4 µM (inactive); in experiment [20], 27.9 µM (inactive).

`NC1(C(=O)O)CCCC1` [CYCLOLEUCINE]: the GI50 in experiment [2] was > 625 µM (inactive); in [12], > 625 µM (inactive); in [13], > 625 µM (inactive); in [14], > 625 µM (inactive); in experiment [4], > 578 µM (inactive); in experiment [15], > 625 µM (inactive). For the same compound, the GI50 in experiment [16], in experiment [6], in experiment [7], in experiment [8], in experiment [9] and in [11] was > 625 µM (inactive) in each case.

For the compound `C/C(=C1/N=C(c2cc([N+](=O)[O-])ccc2Cl)N(c2ccc(Br)cc2)C1=O)c1cc2ccccc2oc1=O`, the GI50 is 34.8 µM (inactive) in experiment [2]; 6 µM (inactive) in [3]; 17.3 µM (inactive) in experiment [14]; > 100 µM (inactive) in experiment [4]; > 100 µM (inactive) in experiment [15]; 25.9 µM (inactive) in experiment [5]. In addition, the GI50 in [7] was 23.7 µM (inactive); in experiment [8], > 100 µM (inactive); in experiment [9], 10.1 µM (inactive); in [10], 6.78 µM (inactive); in experiment [11], 30.1 µM (inactive).

With `O=C(CC12C3C4C1C1C2C3C41CC(=O)NO)NO` (stereo not given), the GI50 in experiment [1] is > 100 µM (inactive); in [2], 31 µM (inactive); in [3], > 100 µM (inactive); in [14], 28.9 µM (inactive); in experiment [4], > 100 µM (inactive); in experiment [15], 34 µM (inactive). Also, the GI50 in experiment [5] is 28.8 µM (inactive); in experiment [6], 39.3 µM (inactive); in experiment [7] it was 36.9 µM (inactive); in experiment [8] it was 40.8 µM (inactive); in [9], 24.2 µM (inactive); in experiment [10], 47.6 µM (inactive). In [11], the GI50 is 46.3 µM (inactive).

For the origin of these results see ChEMBL document CHEMBL1201862, “PubChem BioAssay data set” (2004).
